Measurements from patent publication US12479831B2, “Substituted N(-methyl-D3)pyridazine-3-carboxamide or M-(methyl-D3)-nicotinamide compounds as IL-12, IL-23 and/or IFNα modulators” (BRISTOL-MYERS SQUIBB COMPANY, priority 2020, dated 2025).

test system: IFNα-Induced STAT Phosphorylation in Human Whole Blood; assay: IFNα-Induced STAT Phosphorylation in Human Whole Blood; assay type: cell-based; settings: 1 h incubation with compound, 1000 U/mL recombinant human IFNα A/D for 15 min, pSTAT5 (pY694) median fluorescence intensity in CD3 positive population, read-out: hWB IC50
Description: IFNα-Induced STAT Phosphorylation in Human Whole Blood
After an hour long incubation with compound, human whole blood (drawn with either EDTA or ACD-A as anti-coagulant) was stimulated with 1000 U/mL recombinant human IFNα A/D (R&D Systems 11200-2) for 15 min. The stimulation was stopped by adding Fix/Lyse buffer (BD 558049). Cells were stained with a CD3 FITC antibody (BD 555916), washed, and permeabilized on ice using Perm III buffer (BD 558050). […] The amount of pSTAT5 expression was quantitated by median fluorescence intensity after gating on the CD3 positive population.
IFNα-Induced STAT Phosphorylation in Human Whole Blood Inhibition Data

IC50 [nM]	Structure (SMILES)
86	[2H]C([2H])([2H])NC(=O)c1cnc(Nc2ccn(C)n2)cc1Nc1cccc(-c2ncc(F)cn2)c1OC [Example 65, 4-((3-(5-fluoropyrimidin-2-yl)-2-methoxyphenyl)amino)-N-(methyl-d3)-6-((1-methyl-1H-pyrazol-3-yl)amino)nicotinamide]
109	[2H]C([2H])([2H])NC(=O)c1cnc(Nc2cc(C#N)n(C)n2)cc1Nc1cccc(-c2ncc(F)cn2)c1OC [Example 62, 6-((5-cyano-1-methyl-1H-pyrazol-3-yl)amino)-4-((3-(5-fluoropyrimidin-2-yl)-2-methoxyphenyl)amino)-N-(methyl-d3)nicotinamide]
73	[2H]C([2H])([2H])NC(=O)c1nnc(NC(=O)C2CC2)cc1Nc1cccc(-c2ncc(N3CCN(C)C3=O)cn2)c1OC [Example 116]
250	[2H]C([2H])([2H])NC(=O)c1nnc(Nc2cn(CC)nn2)cc1Nc1cccc(-c2ncc(F)cn2)c1OC [Example 89, 6-((1-ethyl-1H-1,2,3-triazol-4-yl)amino)-4-((3-(5-fluoropyrimidin-2-yl)-2-methoxyphenyl)amino)-N-(methyl-d3)pyridazine-3-carboxamide]
117	[2H]C([2H])([2H])NC(=O)c1nnc(NC(=O)C2CC2)cc1Nc1cccc(-c2cnc(N3CCOCC3)cn2)c1OC [Example 57, 6-(Cyclopropanecarboxamido)-4-((2-methoxy-3-(5-morpholinopyrazin-2-yl)phenyl)amino)-N-(methyl-d3)pyridazine-3-carboxamide]
93	[2H]C([2H])([2H])NC(=O)c1nnc(Nc2cnc(C(C)(C)O)cn2)cc1Nc1cccc(-c2ncc(F)cn2)c1OC [Example 101, 4-((3-(5-fluoropyrimidin-2-yl)-2-methoxyphenyl)amino)-6-((5-(2-hydroxypropan-2-yl)pyrazin-2-yl)amino)-N-(methyl-d3)pyridazine-3-carboxamide]
214	[2H]C([2H])([2H])NC(=O)c1nnc(NC(=O)C2CC2)cc1Nc1cccc(-c2ccc(=O)n(C)n2)c1OC [Example 9, 6-(cyclopropanecarboxamido)-4-((2-methoxy-3-(1-methyl-6-oxo-1,6-dihydropyridazin-3-yl)phenyl)amino)-N-(methyl-d3)pyridazine-3-carboxamide]
50	[2H]C([2H])([2H])NC(=O)c1nnc(NC(=O)C2CC2)cc1Nc1cccc(-c2ncc(C(=O)N(C)C3CC3)cn2)c1OC [Example 52, 6-(cyclopropanecarboxamido)-4-((3-(5-(cyclopropyl(methyl)carbamoyl)pyrimidin-2-yl)-2-methoxyphenyl)amino)-N-(methyl-d3)pyridazine-3-carboxamide]
43	[2H]C([2H])([2H])NC(=O)c1nnc(NC(=O)C2CC2)cc1Nc1cccc(-c2cnc(C3(O)COC3)cn2)c1OC [Example 33, 6-(cyclopropanecarboxamido)-4-((3-(5-(3-hydroxyoxetan-3-yl)pyrazin-2-yl)-2-methoxyphenyl)amino)-N-(methyl-d3)pyridazine-3-carboxamide]
87	[2H]C([2H])([2H])NC(=O)c1cnc(Nc2ccc(OC)nn2)cc1Nc1cccc(-c2ncc(F)cn2)c1OC [Example 74, 4-((3-(5-fluoropyrimidin-2-yl)-2-methoxyphenyl)amino)-6-((6-methoxypyridazin-3-yl)amino)-N-(methyl-d3)nicotinamide]
327	[2H]C([2H])([2H])NC(=O)c1nnc(NC(=O)C2CC2)cc1Nc1cccc(-c2nccc(C(=O)N(C)C)n2)c1OC [Example 49, 6-(cyclopropanecarboxamido)-4-((3-(4-(dimethylcarbamoyl)pyrimidin-2-yl)-2-methoxyphenyl)amino)-N-(methyl-d3)pyridazine-3-carboxamide]
77	[2H]C([2H])([2H])NC(=O)c1nnc(Nc2cc(C(C)(C)O)n(C)n2)cc1Nc1cc(F)cc(-c2ncc(F)cn2)c1OC [Example 83, 4-((5-fluoro-3-(5-fluoropyrimidin-2-yl)-2-methoxyphenyl)amino)-6-((5-(2-hydroxypropan-2-yl)-1-methyl-1H-pyrazol-3-yl)amino)-N-(methyl-d3)pyridazine-3-carboxamide]
182	[2H]C([2H])([2H])NC(=O)c1nnc(Nc2ccc(C#N)nn2)cc1Nc1cccc(-c2ncc(F)cn2)c1OC [Example 95, 6-((6-cyanopyridazin-3-yl)amino)-4-((3-(5-fluoropyrimidin-2-yl)-2-methoxyphenyl)amino)-N-(methyl-d3)pyridazine-3-carboxamide]
43	[2H]C([2H])([2H])NC(=O)c1nnc(Nc2cc(C(=O)N(C)C)n(C)n2)cc1Nc1cccc(-c2ncc(F)cn2)c1OC [Example 85, 6-((5-(dimethylcarbamoyl)-1-methyl-1H-pyrazol-3-yl)amino)-4-((3-(5-fluoropyrimidin-2-yl)-2-methoxyphenyl)amino)-N-(methyl-d3)pyridazine-3-carboxamide]
212	[2H]C([2H])([2H])NC(=O)c1nnc(Nc2cc(C(C)(C)O)ccn2)cc1Nc1cccc(-c2ncc(F)cn2)c1OC [Example 102, 4-((3-(5-fluoropyrimidin-2-yl)-2-methoxyphenyl)amino)-6-((4-(2-hydroxypropan-2-yl)pyridin-2-yl)amino)-N-(methyl-d3)pyridazine-3-carboxamide]
44	[2H]C([2H])([2H])NC(=O)c1nnc(NC(=O)C2CC2)cc1Nc1cccc(-c2cnc(C(=O)N3CCOCC3)cn2)c1OC [Example 38, 6-(cyclopropanecarboxamido)-4-((2-methoxy-3-(5-(morpholine-4-carbonyl)pyrazin-2-yl)phenyl)amino)-N-(methyl-d3)pyridazine-3-carboxamide]
170	[2H]C([2H])([2H])NC(=O)c1nnc(Nc2cnn(C)n2)cc1Nc1cccc(-c2ncc(F)cn2)c1OC [Example 90, 4-((3-(5-fluoropyrimidin-2-yl)-2-methoxyphenyl)amino)-N-(methyl-d3)-6-((2-methyl-2H-1,2,3-triazol-4-yl)amino)pyridazine-3-carboxamide]
77	[2H]C([2H])([2H])NC(=O)c1cnc(Nc2ccc(C(F)(F)F)nn2)cc1Nc1cccc(-c2ncccn2)c1OC [Example 76, 4-((2-methoxy-3-(pyrimidin-2-yl)phenyl)amino)-N-(methyl-d3)-6-((6-(trifluoromethyl)pyridazin-3-yl)amino)nicotinamide]
80	[2H]C([2H])([2H])NC(=O)c1nnc(Nc2cc(C#N)n(C)n2)cc1Nc1cccc(-c2ncccn2)c1OC [Example 80, 6-((5-cyano-1-methyl-1H-pyrazol-3-yl)amino)-4-((2-methoxy-3-(pyrimidin-2-yl)phenyl)amino)-N-(methyl-d3)pyridazine-3-carboxamide]
225	[2H]C([2H])([2H])NC(=O)c1cnc(Nc2cc(C#N)n(C)n2)cc1Nc1cccc(-c2ncccn2)c1OC [Example 61, 6-((5-Cyano-1-methyl-1H-pyrazol-3-yl)amino)-4-((2-methoxy-3-(pyrimidin-2-yl)phenyl)amino)-N-(methyl-d3)nicotinamide]
14	[2H]C([2H])([2H])NC(=O)c1nnc(Nc2cc(C(C)(C)O)n(C)n2)cc1Nc1cccc(-c2ncccn2)c1OC [Example 81, 6-((5-(2-hydroxypropan-2-yl)-1-methyl-1H-pyrazol-3-yl)amino)-4-((2-methoxy-3-(pyrimidin-2-yl)phenyl)amino)-N-(methyl-d3)pyridazine-3-carboxamide]
